{
  "source": "patent US12054510B2",
  "about": "“2′ and/or 5′ amino-acid ester phosphoramidate 3′-deoxy adenosine derivatives as anti-cancer compounds” (Nucana plc, priority 2014, dated 2024)",
  "format_in_all_cases": "cell-based",
  "key": {"[1]": {"tested_on": "leukaemic stem cell (LSC) compartment within the KG1a cell line", "test": "Immunophenotypic identification of the leukaemic stem cell compartment", "conditions": "72 h; for targeting of LSCs (LSC as percentage of all viable cells left in culture): FIG. 2-4; for preferential targeting of LSCs compared with the parent nucleoside: compound A at 1 mM and above", "protocol": "KG1a cells were cultured for 72 h in the presence of a wide range of concentrations of each compound assayed. Cells were then harvested and labelled with a cocktail of anti-lineage antibodies (PE-cy7), anti-CD34 (FITC), anti-CD38 (PE) and anti-CD123 (PERCP cy5). The sub-population expressing a LSC phenotype were subsequently identified and were expressed as a percentage of all viable cells left in the culture. The percentages of stem cells remaining were then plotted on a dose-response graph and the effects of the compounds were compared with each other, and with the parent nucleoside.\nThe data obtained in these experiments were evaluated using one way ANOVA. All data was confirmed as Gaussian or a Gaussian approximation using the omnibus K2 test. LD50 values were calculated from the non-linear regression and line of best-fit analysis of the sigmoidal dose-response curves. All statistical analyses were performed using Graphpad Prism 6.0 software (Graphpad Software Inc., San Diego, CA)."}, "MCF-7": {"tested_on": "MCF-7", "test": "CellTiterGlo cell viability assay, initial screening", "conditions": "MCF-7; 72 hr; Table II", "protocol": "(§1) In vitro viability assays were performed to assess the effects of compounds on cell viability in 7 selected cell lines over 72 hr using the CellTiterGlo (CTG, Promega-G7573) assay. The tests were performed in duplicates with treatment of compounds at 9 points, 3.16 folds titration in 96 well plates over ˜72 hr. The compound starting concentrations were […]. Cell viability assay using CellTiterGlo in 96-well plate were performed. The compound treatment was 72 hrs, under standard growth conditions, and in duplicate. Compounds were dissolved to 40 mM with thawed […]. Compounds were serially diluted at 3.16 fold in thawed DMSO, and warmed to 37° C. before being dissolved in media (2 μl+200 μl). After compounds were dissolved in media (media was also warmed to 37° C.). Media containing compounds were warmed to 37° C. in incubator and then compounds in media were added to cell plates (50 μl+50 μl), in duplicates. The compounds final concentrations were from […] to 19.9 nM. All compound solubilities were checked and recorded again, then the plates were transferred to CO2 tissue culture incubator immediately and incubated for 3 days. DMSO final concentration is 0.5%."}, "K562": {"tested_on": "K562", "test": "CellTiterGlo cell viability assay, initial screening", "conditions": "72 hr, Table II", "protocol": "as §1"}, "MOLT-4": {"tested_on": "MOLT-4", "test": "CellTiterGlo cell viability assay, initial screening", "protocol": "as §1"}, "KG-1": {"tested_on": "KG-1", "test": "CellTiterGlo cell viability assay, initial screening", "protocol": "as §1"}, "CCRF-CEM": {"tested_on": "CCRF-CEM", "test": "CellTiterGlo cell viability assay, initial screening", "protocol": "as §1"}, "HepG2": {"tested_on": "HepG2", "test": "CellTiterGlo cell viability assay, initial screening", "conditions": "for M.I. %: maximum percentage inhibition of cell viability: HepG2, 72 hr, Table II", "protocol": "as §1"}, "HL-60": {"tested_on": "HL-60", "test": "CellTiterGlo cell viability assay, initial screening", "conditions": "for IC50: Homo sapiens, HL-60, 72 h, read-out: IC50 (relative IC50)", "protocol": "as §1"}},
  "data": [
    {"smiles": "C[C@H](NP(=O)(OC[C@@H]1C[C@@H](O)[C@H](n2cnc3c(N)nc(F)nc32)O1)Oc1ccccc1)C(=O)OCc1ccccc1", "note": "(mixture of isomers) [P, (2S)-benzyl 2-(((((2S,4R,5R)-5-(6-amino-2-fluoro-9H-purin-9-yl)-4-hydroxytetrahydrofuran-2-yl)methoxy)(phenoxy)phosphoryl)amino)propanoate]", "values": [
      {"measurement": "targeting of LSCs (LSC as percentage of all viable cells left in culture)", "setting": "[1]", "result": "preferential targeting of LSCs"},
      {"measurement": "preferential targeting of LSCs compared with the parent nucleoside", "setting": "[1]", "result": "significantly improved when compared with the parental nucleoside"}
    ]},
    {"smiles": "C[C@H](NP(=O)(N[C@@H](C)C(=O)OCc1ccccc1)OC[C@@H]1CC(O)[C@H](n2cnc3c(N)ncnc32)O1)C(=O)OCc1ccccc1", "note": "(stereo in doubt) [Compound J, Benzyl 2-[({[5-(6-amino-9H-purin-9-yl)-4-hydroxyoxolan-2-yl]methoxy}({[1-(benzyloxy)-1-oxopropan-2-yl]amino})phosphoryl)amino]propanoate]", "values": [
      {"measurement": "M.I. %: maximum percentage inhibition of cell viability", "setting": "MCF-7", "result": 97, "unit": "%"},
      {"measurement": "M.I. %: maximum percentage inhibition of cell viability", "setting": "K562", "result": 97, "unit": "%"},
      {"measurement": "M.I. %: maximum percentage inhibition of cell viability", "setting": "MOLT-4; human, 72 h", "result": 100, "unit": "%"},
      {"measurement": "M.I. %: maximum percentage inhibition of cell viability", "setting": "KG-1; human, 72 h", "result": 29, "unit": "%"},
      {"measurement": "M.I. %: maximum percentage inhibition of cell viability", "setting": "CCRF-CEM; human, 72 h", "result": 100, "unit": "%"},
      {"measurement": "M.I. %: maximum percentage inhibition of cell viability", "setting": "HepG2", "result": 55, "unit": "%"},
      {"measurement": "M.I. %: maximum percentage inhibition of cell viability", "setting": "HL-60; human, 72 h", "result": 98, "unit": "%"}
    ]},
    {"smiles": "C[C@H](NP(=O)(Oc1cccc2ccccc12)O[C@@H]1C[C@@H](CO)O[C@H]1n1cnc2c(N)ncnc21)C(=O)OCc1ccccc1", "note": "(stereo partly drawn) [Compound I, (2S)-benzyl 2-(((((2R,3R,5S)-2-(6-amino-9H-purin-9-yl)-5-(hydroxymethyl)tetrahydro-furan-3-yl)oxy)(naphthalen-1-yloxy)phosphoryl)amino)propanoate]", "values": [
      {"measurement": "M.I. %: maximum percentage inhibition of cell viability", "setting": "MCF-7", "result": 99, "unit": "%"},
      {"measurement": "M.I. %: maximum percentage inhibition of cell viability", "setting": "K562", "result": 87, "unit": "%"},
      {"measurement": "M.I. %: maximum percentage inhibition of cell viability", "setting": "MOLT-4; MOLT-4, 72 hr, Table II", "result": 100, "unit": "%"},
      {"measurement": "M.I. %: maximum percentage inhibition of cell viability", "setting": "KG-1; KG-1, 72 hr, Table II", "result": 93, "unit": "%"},
      {"measurement": "M.I. %: maximum percentage inhibition of cell viability", "setting": "CCRF-CEM; CCRF-CEM, 72 hr, Table II", "result": 99, "unit": "%"},
      {"measurement": "M.I. %: maximum percentage inhibition of cell viability", "setting": "HepG2", "result": 90, "unit": "%"},
      {"measurement": "M.I. %: maximum percentage inhibition of cell viability", "setting": "HL-60; HL-60, 72 hr, Table II", "result": 99, "unit": "%"}
    ]},
    {"smiles": "C[C@H](NP(=O)(OC[C@@H]1C[C@H](O)[C@H](n2cnc3c(N)nc(F)nc32)O1)Oc1cccc2ccccc12)C(=O)OCc1ccccc1", "note": "(stereo partly drawn) [Compound O]", "values": [
      {"measurement": "targeting of LSCs (LSC as percentage of all viable cells left in culture)", "setting": "[1]", "result": "able to bring about a reduction in the proportion of LSCs"},
      {"measurement": "preferential targeting of LSCs compared with the parent nucleoside", "setting": "[1]", "result": "not significantly different to 2-F-Cordycepin"}
    ]},
    {"smiles": "CCCCCOC(=O)[C@H](CC(C)C)NP(=O)(OC[C@@H]1C[C@H](O)[C@H](n2cnc3c(N)nc(F)nc32)O1)Oc1cccc2ccccc12", "note": "(stereo partly drawn) [Compound Q, 2-Fluoro-3′-deoxyadenosine-5′-O-[1-naphthyhl(1-pentyloxy-L-leucinyl)]phosphate]", "values": [
      {"measurement": "targeting of LSCs (LSC as percentage of all viable cells left in culture)", "setting": "[1]", "result": "preferential targeting of LSCs"},
      {"measurement": "preferential targeting of LSCs compared with the parent nucleoside", "setting": "[1]", "result": "significantly improved when compared with the parental nucleoside"}
    ]},
    {"smiles": "C[C@H](NP(=O)(Oc1ccccc1)O[C@@H]1C[C@@H](CO)O[C@H]1n1cnc2c(N)ncnc21)C(=O)OCc1ccccc1", "note": "(stereo partly drawn) [G, (2S)-benzyl 2-(((((2R,3R,5S)-2-(6-amino-9H-purin-9-yl)-5-(hydroxymethyl)tetrahydro-furan-3-yl)oxy)(phenoxy)phosphoryl)amino)propanoate]", "values": [
      {"measurement": "M.I. %: maximum percentage inhibition of cell viability", "setting": "MCF-7", "result": 97, "unit": "%"},
      {"measurement": "M.I. %: maximum percentage inhibition of cell viability", "setting": "K562", "result": 78, "unit": "%"},
      {"measurement": "M.I. %: maximum percentage inhibition of cell viability", "setting": "MOLT-4; MOLT-4, 72 hr, Table II", "result": 75, "unit": "%"},
      {"measurement": "M.I. %: maximum percentage inhibition of cell viability", "setting": "KG-1; KG-1, 72 hr, Table II", "result": 63, "unit": "%"},
      {"measurement": "M.I. %: maximum percentage inhibition of cell viability", "setting": "CCRF-CEM; CCRF-CEM, 72 hr, Table II", "result": 65, "unit": "%"},
      {"measurement": "M.I. %: maximum percentage inhibition of cell viability", "setting": "HepG2", "result": 67, "unit": "%"},
      {"measurement": "IC50", "setting": "HepG2; Homo sapiens, HepG2, 72 h, read-out: IC50 (relative IC50)", "result": "15 to 100", "unit": "µM"},
      {"measurement": "M.I. %: maximum percentage inhibition of cell viability", "setting": "HL-60; HL-60, 72 hr, Table II", "result": 57, "unit": "%"},
      {"measurement": "IC50", "setting": "HL-60", "result": "15 to 100", "unit": "µM"}
    ]},
    {"smiles": "C[C@H](NP(=O)(OC[C@@H]1C[C@@H](OP(=O)(N[C@@H](C)C(=O)OCc2ccccc2)Oc2ccccc2)[C@H](n2cnc3c(N)ncnc32)O1)Oc1ccccc1)C(=O)OCc1ccccc1", "note": "(stereo partly drawn) [H, Benzyl 2-(((((2S,4R,5R)-5-(6-amino-9H-purin-9-yl)-4-((((1-(benzyloxy)-1-oxopropan-2-yl)amino)(phenoxy)phosphoryl)oxy)tetrahydrofuran-2-yl)methoxy)(phenoxy)phosphoryl)-amino)propanoate]", "values": [
      {"measurement": "M.I. %: maximum percentage inhibition of cell viability", "setting": "MCF-7", "result": 94, "unit": "%"},
      {"measurement": "M.I. %: maximum percentage inhibition of cell viability", "setting": "K562", "result": 89, "unit": "%"},
      {"measurement": "M.I. %: maximum percentage inhibition of cell viability", "setting": "MOLT-4; MOLT-4, 72 hr, Table II", "result": 100, "unit": "%"},
      {"measurement": "M.I. %: maximum percentage inhibition of cell viability", "setting": "KG-1; KG-1, 72 hr, Table II", "result": 69, "unit": "%"},
      {"measurement": "M.I. %: maximum percentage inhibition of cell viability", "setting": "CCRF-CEM; CCRF-CEM, 72 hr, Table II", "result": 100, "unit": "%"},
      {"measurement": "M.I. %: maximum percentage inhibition of cell viability", "setting": "HepG2", "result": 55, "unit": "%"},
      {"measurement": "M.I. %: maximum percentage inhibition of cell viability", "setting": "HL-60; HL-60, 72 hr, Table II", "result": 80, "unit": "%"},
      {"measurement": "IC50", "setting": "HL-60", "result": "15 to 100", "unit": "µM"}
    ]},
    {"smiles": "CCCCCCOC(=O)[C@H](C)NP(=O)(OC[C@@H]1C[C@@H](O)[C@H](n2cnc3c(N)nc(F)nc32)O1)Oc1ccccc1", "note": "(stereo partly drawn) [R, (2S)-hexyl 2-(((((2S,4R,5R)-5-(6-amino-2-fluoro-9H-purin-9-yl)-4-hydroxytetrahydrofuran-2-yl)methoxy)(phenoxy)phosphoryl)amino)propanoate]", "values": [
      {"measurement": "targeting of LSCs (LSC as percentage of all viable cells left in culture)", "setting": "[1]", "result": "preferential targeting of LSCs"},
      {"measurement": "preferential targeting of LSCs compared with the parent nucleoside", "setting": "[1]", "result": "significantly improved when compared with the parental nucleoside"}
    ]}
  ]
}
